Experimental data: patent publication US12338262B2 (Forward Therapeutics, Inc., priority 2022, dated 2025)

These compounds were tested against TNF-α (Homo sapiens, UniProt P01375) (assay: TNF-α Induced HEK Blue Cellular Assay). Settings: HEK Blue TNFα reporter cells, TNF-α 100 pg/ml, 24 hrs at 37° C., secreted alkaline phosphatase (QUANTI-Blue, 620 nm).
Type: cell-based
How it was run: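 Read-out is SEAP via QUANTI-Blue absorbance at 620 nm after a 24 h, 37 °C incubation of reporter HEK Blue cells with 100 pg/ml TNF-α plus compound at final […]–0.5 nM. Percent inhibition normalised to DMSO ± stimulation; 4-parameter logistic fit gives IC50.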

TNF-α, sequence (P01375 77-233 limits assumed): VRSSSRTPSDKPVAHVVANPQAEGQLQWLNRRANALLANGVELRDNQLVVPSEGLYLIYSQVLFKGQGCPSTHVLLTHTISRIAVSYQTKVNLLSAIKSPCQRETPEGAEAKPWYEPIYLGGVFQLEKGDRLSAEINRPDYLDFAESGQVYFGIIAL

Row | IC50 | Structure (SMILES)
1 | ≤ 100 nM | CC[C@@H](Nc1c(Cl)c(C)nc2cc(F)c(-c3ccc(P(C)(C)=O)nc3)nc12)c1ccccc1 [Example 79, 3-chloro-6-[6-(dimethylphosphoryl)pyridin-3-yl]-7-fluoro-2-methyl-N-[(1R)-1-phenylpropyl]-1,5-naphthyridin-4-amine]
2 | ≤ 1000 nM | Cc1nc2cc(F)c(-c3ccc(P(C)(C)=O)nc3)nc2c(N[C@H](C)c2ccc(F)c(F)c2)c1Cl [Example 80, 3-chloro-N-[(1R)-1-(3,4-difluorophenyl)ethyl]-6-[6-(dimethylphosphoryl)pyridin-3-yl]-7-fluoro-2-methyl-1,5-naphthyridin-4-amine]
3 | 10000 to 30000 nM | COc1cc([C@@H](C)Nc2c(Cl)c(C)nc3cc(F)c(-c4ccc(P(C)(C)=O)nc4)nc23)ccn1 [Example 81, 3-chloro-6-[6-(dimethylphosphoryl)pyridin-3-yl]-7-fluoro-N-[(1R)-1-(2-methoxypyridin-4-yl)ethyl]-2-methyl-1,5-naphthyridin-4-amine]
4 | ≤ 100 nM | CCC(Nc1c(Cl)c(C)nc2cc(F)c(-c3ccc(P(C)(C)=O)nc3)nc12)c1cccnc1 (centres unmarked) [Example 82, 3-chloro-6-[6-(dimethylphosphoryl)pyridin-3-yl]-7-fluoro-2-methyl-N-[1-(pyridin-3-yl)propyl]-1,5-naphthyridin-4-amine]
5 | ≤ 1000 nM | Cc1nc2cc(F)c(-c3ccc(P(C)(C)=O)nc3)nc2c(N[C@H](C)c2ccccn2)c1Cl [Example 83, 3-chloro-6-[6-(dimethylphosphoryl)pyridin-3-yl]-7-fluoro-2-methyl-N-[(1R)-1-(pyridin-2-yl)ethyl]-1,5-naphthyridin-4-amine]
6 | ≤ 1000 nM | CC[C@@H](Nc1c(Cl)c(C)nc2cc(F)c(-c3ccc(P(C)(C)=O)nc3)nc12)c1ccccn1 [Example 84, 3-chloro-6-[6-(dimethylphosphoryl)pyridin-3-yl]-7-fluoro-2-methyl-N-[(1R)-1-(pyridin-2-yl)propyl]-1,5-naphthyridin-4-amine]
7 | ≤ 1000 nM | Cc1nc2cc(F)c(-c3ccc(P(C)(C)=O)nc3)nc2c(N[C@H](C)c2cc(F)cc(F)c2)c1Cl [Example 85, 3-chloro-N-[(1R)-1-(3,5-difluorophenyl)ethyl]-6-[6-(dimethylphosphoryl)pyridin-3-yl]-7-fluoro-2-methyl-1,5-naphthyridin-4-amine]
8 | ≤ 100 nM | Cc1nc2cc(F)c(-c3ccc(P(C)(C)=O)nc3)nc2c(N[C@H](C)c2cccc(F)c2)c1Cl [Example 86, 3-chloro-6-[6-(dimethylphosphoryl)pyridin-3-yl]-7-fluoro-N-[(1R)-1-(3-fluorophenyl)ethyl]-2-methyl-1,5-naphthyridin-4-amine]
9 | 1000 to 10000 nM | Cc1nc2cc(F)c(-c3ccc(P(C)(C)=O)nc3)nc2c(N[C@H](C)c2ccccc2Cl)c1Cl [Example 87, 3-chloro-N-[(1R)-1-(2-chlorophenyl)ethyl]-6-[6-(dimethylphosphoryl)pyridin-3-yl]-7-fluoro-2-methyl-1,5-naphthyridin-4-amine]
10 | 10000 to 30000 nM | Cc1nc2cc(F)c(-c3ccc(P(C)(C)=O)nc3)nc2c(N[C@H](C)c2ccc(F)cc2F)c1Cl [Example 88, 3-chloro-N-[(1R)-1-(2,4-difluorophenyl)ethyl]-6-[6-(dimethylphosphoryl)pyridin-3-yl]-7-fluoro-2-methyl-1,5-naphthyridin-4-amine]
11 | 10000 to 30000 nM | Cc1nc2cc(F)c(-c3ccc(P(C)(C)=O)nc3)nc2c(N[C@H](C)c2c(F)ccc(F)c2F)c1Cl [Example 89, 3-chloro-6-[6-(dimethylphosphoryl)pyridin-3-yl]-7-fluoro-2-methyl-N-[(1R)-1-(2,3,6-trifluorophenyl)ethyl]-1,5-naphthyridin-4-amine]
12 | ≤ 100 nM | Cc1nc2cc(F)c(-c3ccc(P(C)(C)=O)nc3)nc2c(N[C@H](C)c2ccccc2)c1Cl [Example 90, 3-chloro-6-[6-(dimethylphosphoryl)pyridin-3-yl]-7-fluoro-2-methyl-N-[(1R)-1-phenylethyl]-1,5-naphthyridin-4-amine]
13 | ≤ 100 nM | Cc1nc2cc(F)c(-c3ccc(P(C)(C)=O)nc3)nc2c(N[C@H](C)c2cccc(Cl)c2)c1Cl [Example 91, 3-chloro-N-[(1R)-1-(3-chlorophenyl)ethyl]-6-[6-(dimethylphosphoryl)pyridin-3-yl]-7-fluoro-2-methyl-1,5-naphthyridin-4-amine]
14 | ≤ 100 nM | Cc1nc2cc(F)c(-c3ccc(P(C)(C)=O)nc3)nc2c(N[C@H](C)c2cccc(C(F)F)c2)c1Cl [Example 92, 3-chloro-N-[(1R)-1-[3-(difluoromethyl)phenyl]ethyl]-6-[6-(dimethylphosphoryl)pyridin-3-yl]-7-fluoro-2-methyl-1,5-naphthyridin-4-amine]
15 | ≤ 100 nM | Cc1nc2cc(F)c(-c3ccc(P(C)(C)=O)nc3)nc2c(N[C@H](C)c2cccc(C(F)(F)F)c2)c1Cl [Example 93, 3-chloro-6-[6-(dimethylphosphoryl)pyridin-3-yl]-7-fluoro-2-methyl-N-[(1R)-1-[3-(trifluoromethyl)phenyl]ethyl]-1,5-naphthyridin-4-amine]
16 | ≤ 1000 nM | Cc1nc2cc(F)c(-c3ccc(P(C)(C)=O)nc3)nc2c(NC(C)c2ncccc2F)c1Cl (centres unmarked) [Example 94, 3-chloro-6-[6-(dimethylphosphoryl)pyridin-3-yl]-7-fluoro-N-[1-(3-fluoropyridin-2-yl)ethyl]-2-methyl-1,5-naphthyridin-4-amine]
17 | ≤ 100 nM | CC[C@@H](Nc1c(Cl)c(C)nc2cc(F)c(-c3ccc(P(C)(C)=O)nc3)nc12)c1cccc(F)c1F [Example 95, (R)-(5-(7-chloro-8-((1-(2,3-difluorophenyl)propyl)amino)-3-fluoro-6-methyl-1,5-naphthyridin-2-yl)pyridin-2-yl)dimethylphosphine oxide]
18 | ≤ 100 nM | CC[C@H](Nc1c(Cl)c(C)nc2cc(F)c(-c3ccc(P(C)(C)=O)nc3)nc12)c1cccc(F)c1F [Example 96, (S)-(5-(7-chloro-8-((1-(2,3-difluorophenyl)propyl)amino)-3-fluoro-6-methyl-1,5-naphthyridin-2-yl)pyridin-2-yl)dimethylphosphine oxide]
19 | ≤ 1000 nM | Cc1nc2cc(F)c(-c3ccc(P(C)(C)=O)nc3)c(F)c2c(NC(C)c2ncccc2F)c1Cl (centres unmarked) [Example 97, 3-chloro-6-[6-(dimethylphosphoryl)pyridin-3-yl]-5,7-difluoro-N-[1-(3-fluoropyridin-2-yl)ethyl]-2-methylquinolin-4-amine]
20 | ≤ 1000 nM | C#Cc1ccc(F)c([C@@H](C)Nc2c(Cl)c(C)nc3cc(F)c(-c4ccc(P(C)(C)=O)nc4)nc23)c1 [Example 98, 3-chloro-6-[6-(dimethylphosphoryl)pyridin-3-yl]-N-[(1R)-1-(5-ethynyl-2-fluorophenyl)ethyl]-7-fluoro-2-methyl-1,5-naphthyridin-4-amine]
21 | ≤ 1000 nM | Cc1nc2cc(F)c(-c3ccc(P(C)(C)=O)nc3)nc2c(N[C@H](C)c2cc(F)cc(C#N)c2)c1Cl [Example 99, 3-[(1R)-1-({3-chloro-6-[6-(dimethylphosphoryl)pyridin-3-yl]-7-fluoro-2-methyl-1,5-naphthyridin-4-yl}amino)ethyl]-5-fluorobenzonitrile]
22 | ≤ 1000 nM | CC[C@@H](Nc1c(Cl)c(C)nc2cc(F)c(-c3ccc(P(C)(C)=O)nc3)cc12)c1ncccc1F [Example 102, 3-chloro-6-[6-(dimethylphosphoryl)pyridin-3-yl]-7-fluoro-N-[(1R)-1-(3-fluoropyridin-2-yl)propyl]-2-methylquinolin-4-amine]
23 | 10000 to 30000 nM | Cc1nc2cc(F)c(-c3ccc(P4(=O)CCOCC4)nc3)cc2c(N[C@H](C)c2cccc(F)c2F)c1Cl [Example 103, 4-[5-(3-chloro-4-{[(1R)-1-(2,3-difluorophenyl)ethyl]amino}-7-fluoro-2-methylquinolin-6-yl)pyridin-2-yl]-1,4lambda5-oxaphosphinan-4-one]
24 | ≤ 1000 nM | CCC(Nc1c(Cl)c(C)nc2cc(F)c(-c3ccc(P(C)(C)=O)nc3)nc12)c1cnn(C)c1 (centres unmarked) [Example 104, 3-chloro-6-[6-(dimethylphosphoryl)pyridin-3-yl]-7-fluoro-2-methyl-N-[1-(1-methylpyrazol-4-yl)propyl]-1,5-naphthyridin-4-amine]
25 | ≤ 1000 nM | Cc1nc2cc(F)c(-c3ccc(OCP(C)(C)=O)nc3)cc2c(N[C@H](C)c2ccccc2F)c1Cl [Example 105, 3-chloro-6-{6-[(dimethylphosphoryl)methoxy]pyridin-3-yl}-7-fluoro-N-[(1R)-1-(2-fluorophenyl)ethyl]-2-methylquinolin-4-amine]
26 | ≤ 100 nM | Cc1nc2cc(F)c(-c3ccc(P(C)(C)=O)nc3)nc2c(N[C@H](C)c2cc(C#N)cc(F)c2F)c1Cl [Example 106, 3-[(1R)-1-({3-chloro-6-[6-(dimethylphosphoryl)pyridin-3-yl]-7-fluoro-2-methyl-1,5-naphthyridin-4-yl}amino)ethyl]-4,5-difluorobenzonitrile]
27 | ≤ 1000 nM | Cc1nc2cc(F)c(-c3cnc(P(C)(C)=O)c(F)c3)nc2c(N[C@H](C)c2cccc(F)c2F)c1Cl [Example 107, 3-chloro-N-[(1R)-1-(2,3-difluorophenyl)ethyl]-6-[6-(dimethylphosphoryl)-5-fluoropyridin-3-yl]-7-fluoro-2-methyl-1,5-naphthyridin-4-amine]
28 | ≤ 1000 nM | CC[C@@H](Nc1c(Cl)c(C)nc2cc(F)c(-c3ccc(OCP(C)(C)=O)nc3)nc12)c1ncccc1F [Example 108, 3-chloro-6-{6-[(dimethylphosphoryl)methoxy]pyridin-3-yl}-7-fluoro-N-[(1R)-1-(3-fluoropyridin-2-yl)propyl]-2-methyl-1,5-naphthyridin-4-amine]
29 | ≤ 100 nM | Cc1nc2cc(F)c(-c3ccc(P(C)(C)=O)nc3)nc2c(NC2(c3ccccn3)CC2)c1Cl [Example 111, 3-chloro-6-[6-(dimethylphosphoryl)pyridin-3-yl]-7-fluoro-2-methyl-N-[1-(pyridin-2-yl)cyclopropyl]-1,5-naphthyridin-4-amine]
